{"source": "paper PMC10269072", "about": "“Predicting Optimal Antimalarial Drug Combinations from a Standardized Plasmodium falciparum Humanized Mouse Model” (Antimicrobial Agents and Chemotherapy, 2023)", "key": {"[1]": {"system": "P. falciparum 3D7^0087/N9", "test": "PfalcHuMouse model: therapeutic efficacy (parasite clearance, day of recrudescence, cure) in P. falciparum-infected humanized NSG mice", "type": "in vivo, Plasmodium falciparum", "conditions": "for exposure leading to 95% probability of cure: logistic regression of historical data; for day after which no recrudescence occurred (DoR): oral monotherapy, historical data, different dose levels and schedules, drugs with curative exposures in the data set", "excerpt": "To implement the PfalcHuMouse model for analysis of combinations, we first defined the variables of therapeutic response and their interpretation in the context of this analysis. These variables were parasite clearance (PC), parasite recrudescence (PR), and cure (Fig. 2a). […] In our studies, we estimated PC by measuring the ratio of parasitemia in blood at 48-h intervals (pDn/pDn+2, where pD stands for parasitemia and n indicates the day of the assay), which was a simplified alternative of the classical approach and is frequently used in clinical studies. Conversely, PR depends on the number of viable parasites remaining in the body that could proliferate after noneffective treatment and is not systematically used to measure parasite killing in vivo. To test PR validity, we hypothesized that the time point for recrudescent parasitemia to reach the value at the onset of drug treatment (i.e., day of recrudescence [DoR]) correlated with the number of parasites that survived antimalarial treatment ([35]). […] It is important to note that both DoRs, days 0 and 60, represented not quantifiable magnitudes but labels of specific conditions (i.e., therapeutic failure and cure, respectively).\nExperimental infections were carried out as previously described ([12]), with minor modifications. Briefly, NSG mice were engrafted with hE by intraperitoneal daily injections of 1-mL hE suspensions until a minimum of 40% chimerism in peripheral blood was achieved (typically10 days of injections). The hE-engrafted mice (HuMice) were infected with 0.3 mL of a suspension of pooled blood collected by aseptic cardiac puncture from CO2-euthanized donor HuMice harboring a parasitemia of 5 to 10% P. falciparum 3D7^0087/N9.\n(§1) Before drug administration, each infected mouse was randomly assigned to its corresponding treatment. […] The treatments were administered by oral gavage with 20-gauge straight reusable feeding needles (Fine Science Tools GmbH, Heidelberg, Germany). The volume of administration for the per os (p.o.) route was 10 mL/kg of body weight unless otherwise stated.\nThe quantification of parasitemia at different time points after the infection was performed by flow cytometry as previously described ([46]). Briefly, 2 μL of blood was taken from the lateral tail vein of HuMice and stained with SYTO-16 (Fisher Scientific), a membrane-permeable nonselective fluorescent nucleic acid dye to detect intraerythrocytic parasites, and TER119-phycoerythrin monoclonal antibody (Miltenyi Biotec, Bergisch Gladbach, Germany) as a marker of murine erythrocytes, exactly as described. The samples were acquired and analyzed in a Attune NxT acoustic focusing flow cytometer (Thermo Fisher Scientific, Waltham, MA). The limit of quantification was set to 0.01%, where a minimum of 100 infected events was considered the minimal statistically significant sample (~10^6 total erythrocytes counted for detection). Parasitemia was expressed as the percentage of parasitized erythrocytes with respect to the total erythrocytes in circulation and/or as the absolute concentration of circulating parasitized erythrocytes. For qualitative assessment of blood samples from infected mice, blood smears stained with 10% (vol/vol) Giemsa in saline buffer (0.015 M NaCl, 0.001 M phosphate buffer [pH 7.0]) were prepared and analyzed as described previously ([56]) in a Zeiss Primo Star 4 microscope (Thermo Fisher Scientific) at a magnification of ×100.\nThe treated mice that reached the limit of detection by standard flow cytometry (<0.01% from total circulating erythrocytes) after pharmacological treatment were maintained until day 60 of study."}, "[2]": {"test": "Blood partitioning: distribution of drugs in plasma, erythrocytes and infected erythrocytes of the PfalcHuMouse", "type": "in vivo, mice", "conditions": "for fraction associated with circulating erythrocytes / fraction found in plasma: mouse, in vivo", "excerpt": "Given their physicochemical properties, both ferroquine and piperaquine might accumulate in infected erythrocytes ([41]), so we mined data on the distribution of these drugs in plasma, erythrocytes, and infected erythrocytes of the PfalcHuMouse from previous blood partitioning studies in unrelated drug discovery programs. Approximately 97.5% of both ferroquine and piperaquine was associated with circulating erythrocytes, while only 2.5% was found in plasma. For piperaquine, the accumulation was even higher in erythrocytes of infected individuals (>99%). Moreover, as previously reported ([13]), there was no sequestration of P. falciparum in vascular endothelium of the PfalcHuMouse. Therefore, the contribution of drug accumulated in mature parasites circulating in blood might be relevant, especially in proliferating parasites exposed to noninhibitory concentrations. Consequently, we corrected this effect on drug exposure in blood by dividing the total drug exposure levels in blood by the number of infected erythrocytes in circulation for each animal in the study."}, "[3]": {"test": "Concentration of drugs in whole blood of P. falciparum 3D7^0087/N9-infected HuMice after oral dosing (LC-MS/MS, PK analysis)", "type": "in vivo, mice", "conditions": "for AUC(0-t) / Cmax / Tmax / AUC0toTlast: mouse, in vivo; for AUC(0-t): AUC0toTlast", "procedure": "as §1\nThe concentrations of drugs were measured in whole blood of P. falciparum 3D7^0087/N9-infected HuMice since the amount of plasma that could be obtained from each mouse was very low. Samples of peripheral blood (25 μL) were taken at different time points after dosing, mixed with 25 μL of 10.9 mM potassium oxalate and 59.5 mM sodium fluoride in Milli-Q water, and immediately frozen on a thermal block at −80°C. The frozen samples were stored at −80°C until analysis. Blood from P. falciparum 3D7^0087/N9-infected HuMice harboring a parasitemia of ~1.4% was used for preparation of standard curves, calibration, and quality control samples. The drugs were extracted from 10 μL of lysates, obtained by protein precipitation of blood samples, by using standard liquid-liquid extraction methods. The samples were analyzed by liquid chromatography-tandem mass spectrometry (LC-MS/MS) for quantification in Waters Micromass ultrahigh-performance triple quadrupole (UPLC-TQD) (Waters, Manchester, UK) mass spectrometers.\nMultivariate linear regression, logistic regression, and descriptive statistics were carried out using GraphPad Prism 9.0 (GraphPad Software, San Diego, CA). The comparison of regression models was executed using the Akaike information criterion ([57]). Probability values of <0.05 were considered significant. Phoenix WinNonlin 8.2 (Certara, St. Louis, MO) was used for PK standard analysis."}, "[4]": {"conditions": "artefenomel plus piperaquine model, intercept 102.8, n = 40, Tjur's R^2 = 0.91"}, "[5]": {"conditions": "ferroquine plus artefenomel model, intercept 17.2, n = 50, Tjur's R^2 = 0.31"}}}
{"compound": "Clc1ccc2c(N3CCN(CCCN4CCN(c5ccnc6cc(Cl)ccc56)CC4)CC3)ccnc2c1", "note": "[piperaquine]", "values": [{"measurement": "coefficient of log10AUC in logistic model of cure log(p/1−p)", "setting": "[1]; [4]", "result": 24.2}, {"measurement": "exposure leading to 95% probability of cure", "setting": "[1]; monotherapy", "result": "3.47 × 10^−3 nmol/10^6 infected erythrocytes (iE)"}, {"measurement": "accumulation in erythrocytes of infected individuals", "setting": "[2]; PfalcHuMouse, infected individuals", "result": "> 99", "unit": "%"}, {"measurement": "fraction associated with circulating erythrocytes", "setting": "[2]", "result": "Approximately 97.5%"}, {"measurement": "fraction found in plasma", "setting": "[2]", "result": 2.5, "unit": "%"}, {"measurement": "AUC(0-t)", "setting": "[3]; po, 5 mg/kg", "result": 25300, "unit": "ng·h/mL"}, {"measurement": "Cmax", "setting": "[3]; po, 5 mg/kg", "result": 598, "unit": "ng/mL"}, {"measurement": "AUC(0-t)", "setting": "[3]; po, 10 mg/kg", "result": 21800, "unit": "ng·h/mL"}, {"measurement": "Cmax", "setting": "[3]; po, 10 mg/kg", "result": 346, "unit": "ng/mL"}, {"measurement": "AUC(0-t)", "setting": "[3]; po, 25 mg/kg", "result": 41900, "unit": "ng·h/mL"}, {"measurement": "Cmax", "setting": "[3]; po, 25 mg/kg", "result": 414, "unit": "ng/mL"}, {"measurement": "Tmax", "setting": "[3]; po, 25 mg/kg", "result": 77, "unit": "h"}, {"measurement": "AUC0toTlast", "setting": "[3]; po, 40 mg/kg", "result": 38866, "unit": "ng·h/mL"}, {"measurement": "AUC(0-t)", "setting": "[3]; po, 40 mg/kg", "result": 70000, "unit": "ng·h/mL"}, {"measurement": "Cmax", "setting": "[3]; po, 40 mg/kg", "result": 1120, "unit": "ng/mL"}, {"measurement": "AUC(0-t)", "setting": "[3]; po, 75 mg/kg", "result": 355000, "unit": "ng·h/mL"}, {"measurement": "Cmax", "setting": "[3]; po, 75 mg/kg", "result": 2550, "unit": "ng/mL"}, {"measurement": "Tmax", "setting": "[3]; po, 75 mg/kg", "result": 109, "unit": "h"}]}
{"compound": "ferroquine", "values": [{"measurement": "coefficient of log10AUC in logistic model of cure log(p/1−p)", "setting": "[1]; [5]", "result": 5.4}, {"measurement": "exposure leading to 95% probability of cure", "setting": "[1]; monotherapy", "result": "0.58 × 10^−3 nmol/10^6 infected erythrocytes (iE)"}, {"measurement": "fraction associated with circulating erythrocytes", "setting": "[2]", "result": "Approximately 97.5%"}, {"measurement": "fraction found in plasma", "setting": "[2]", "result": 2.5, "unit": "%"}, {"measurement": "AUC0toTlast", "setting": "[3]; 20 mg/kg", "result": 4708, "unit": "ng·h/mL"}]}
{"compound": "CCCCN(CCCC)CC(O)c1cc(Cl)cc2c1-c1ccc(Cl)cc1/C2=C/c1ccc(Cl)cc1", "note": "(stereo not shown) [lumefantrine]", "values": [{"measurement": "day after which no recrudescence occurred (DoR)", "setting": "[1]", "result": "≤ 35", "unit": "days"}]}
{"compound": "CNC[c-]1cccc1CNc1ccnc2cc(Cl)ccc12.[Fe+2].c1cc[cH-]c1", "note": "(stereo not shown) [SSR97213]", "values": [{"measurement": "share of the total exposure of ferroquine plus SSR97213", "setting": "[3]; average, main metabolite of ferroquine", "result": 40, "unit": "%"}]}
{"compound": "c1cc([C@H]2CC[C@]3(CC2)OO[C@]2(O3)C3CC4CC(C3)CC2C4)ccc1OCCN1CCOCC1", "note": "[artefenomel]", "values": [{"measurement": "coefficient of log10AUC in logistic model of cure log(p/1−p)", "setting": "[1]; [4]", "result": 16.2}, {"measurement": "coefficient of log10AUC in logistic model of cure log(p/1−p)", "setting": "[1]; [5]", "result": 1.6}, {"measurement": "pattern of interaction with piperaquine on parasite killing in vivo", "setting": "[1]; graphic analysis of cure, assuming potency of artefenomel in the same order of magnitude as piperaquine", "result": "synergistic"}, {"measurement": "mechanistic pattern of interaction with ferroquine", "setting": "[1]; graphic analysis of cure, conditioned by large difference in intrinsic potency", "result": "additivity"}, {"measurement": "exposure up to which no cures were available in monotherapy", "setting": "[1]; monotherapy, schedules of treatment used in the experimental studies", "result": "up to 4.7 × 10^−3 nmol/10^6 iE"}, {"measurement": "AUC(0-t)", "setting": "[3]; po, 100 mg/kg", "result": 40900, "unit": "ng·h/mL"}, {"measurement": "Cmax", "setting": "[3]; po, 100 mg/kg", "result": 2200, "unit": "ng/mL"}, {"measurement": "Tmax", "setting": "[3]; po, 100 mg/kg", "result": 2, "unit": "h"}]}
{"compound": "COc1ccc2nc3cc(Cl)ccc3c(Nc3cc(CN4CCCC4)c(O)c(CN4CCCC4)c3)c2n1", "note": "[pyronaridine]", "values": [{"measurement": "day after which no recrudescence occurred (DoR)", "setting": "[1]", "result": "≤ 35", "unit": "days"}]}
